In patent US20260001914A1, “MACROCYCLIC PEPTIDES TARGETING KRAS” (Merck Sharp & Dohme LLC, priority 2022, published 2026) one finds EC50 data, which are given here for 20 compounds.

*1 amine or outer side, *2 acyl side, *3 side chain or, on linkers, in order; H or OH if unused. Where a SMILES comes first, the peptide text is derived from it. Bridges are numbered along the chain shown (N, C = ends). [ ]: non-standard residue; d: D form. N(3-imidazol-1-ylpropyl)Gly = O=C(O)CNCCCn1ccnc1; X49 = O=C(O)Cc1cccc(C[C@H](N[*:1])C(=O)[*:2])c1; Ala(pyrimidin-5-yl) = N[C@@H](Cc1cncnc1)C(=O)O; Phe(3-COOH) = N[C@@H](Cc1cccc(C(=O)O)c1)C(=O)O; NMePhe(3-Me) = CN[C@@H](Cc1cccc(C)c1)C(=O)O; NMePhe(4-Me) = CN[C@@H](Cc1ccc(C)cc1)C(=O)O; NMePhe(3-F) = CN[C@@H](Cc1cccc(F)c1)C(=O)O; NMePhe(4-F) = CN[C@@H](Cc1ccc(F)cc1)C(=O)O; Bip = N[C@@H](Cc1ccc(-c2ccccc2)cc1)C(=O)O; X25 = O=C([C@H](Cc1ccc(F)nc1)N[*:1])[*:2]; X27 = Cc1ccc(C[C@H](N[*:1])C(=O)[*:2])cn1; Phe(3-Me) = Cc1cccc(C[C@H](N)C(=O)O)c1; Phe(4-F) = N[C@@H](Cc1ccc(F)cc1)C(=O)O; Phe(4-Me) = Cc1ccc(C[C@H](N)C(=O)O)cc1; 1Nal = N[C@@H](Cc1cccc2ccccc12)C(=O)O; NHCH2CH2SCH2CO = O=C(CSCCN[*:1])[*:2]; Phe(2-F) = N[C@@H](Cc1ccccc1F)C(=O)O; NMe3Pal = CN[C@@H](Cc1cccnc1)C(=O)O; NMeY = CN[C@@H](Cc1ccc(O)cc1)C(=O)O; X1 = O=C(C12CC(CN[*:1])(C1)C2)[*:2]; hTyr = N[C@@H](CCc1ccc(O)cc1)C(=O)O; X53 = C[C@@H](CSCC(=O)[*:2])N[*:1]; NMeR = CN[C@@H](CCCNC(=N)N)C(=O)O; NMeF = CN[C@@H](Cc1ccccc1)C(=O)O; PhLac = O=C(O)[C@@H](O)Cc1ccccc1; 3Pal = N[C@@H](Cc1cccnc1)C(=O)O; 4Pal = N[C@@H](Cc1ccncc1)C(=O)O; d3Pal = N[C@H](Cc1cccnc1)C(=O)O; Cba = N[C@@H](CC1CCC1)C(=O)O; hLys = NCCCCC[C@H](N)C(=O)O; αMeC = C[C@](N)(CS)C(=O)O; NMeA = CN[C@@H](C)C(=O)O; Nle = CCCC[C@H](N)C(=O)O; Nva = CCC[C@H](N)C(=O)O

Sequence of KRAS-G12D protein (P01116 1-188 isoform P01116-2 G12D): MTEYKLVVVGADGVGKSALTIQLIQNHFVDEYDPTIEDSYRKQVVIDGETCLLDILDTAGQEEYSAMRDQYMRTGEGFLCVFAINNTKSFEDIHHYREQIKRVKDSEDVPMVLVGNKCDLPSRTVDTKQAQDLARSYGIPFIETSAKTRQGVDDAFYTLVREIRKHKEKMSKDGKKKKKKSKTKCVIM

The experiment concerns the target KRAS-G12D protein (Homo sapiens, UniProt P01116, G12D). Nature of the experiment: SOS-mediated nucleotide exchange assay (BODIPY-GDP / Tb-streptavidin TR-FRET). It is filed as biochemical. (Time-resolved FRET reads energy transfer from a long-lived donor to a nearby acceptor.)
Regarding `CCCC[C@@H]1NC(=O)[C@H](Cc2cccnc2)NC(=O)[C@H](C)N(C)C(=O)[C@H](Cc2ccc(C)nc2)NC(=O)C23CC(CNC(=O)[C@H](Cc4cccnc4)N(C)C(=O)[C@H](CCCC)NC(=O)[C@H](Cc4ccccc4F)NC1=O)(C2)C3` [compound 164, cyclo(4Me3Pal-NMeA-3Pal-Nle-Phe2F-Nle-NMe3Pal-amBCP)] (cyclo([3Pal][Nle][Phe(2-F)][Nle][NMe3Pal][X1][X27][NMeA])), the midpoint of the response, the EC50, lay at 2890 nM.

For the compound `CCCC[C@@H]1NC(=O)[C@H](Cc2cccnc2)NC(=O)[C@H](C)N(C)C(=O)[C@H](Cc2ccc(F)nc2)NC(=O)C23CC(CNC(=O)[C@H](Cc4cccnc4)N(C)C(=O)[C@H](CCCC)NC(=O)[C@H](Cc4ccccc4F)NC1=O)(C2)C3` [compound 165, cyclo(4F3Pal-NMeA-3Pal-Nle-Phe2F-Nle-NMe3Pal-amBCP)] (cyclo([3Pal][Nle][Phe(2-F)][Nle][NMe3Pal][X1][X25][NMeA])), a half-maximal response (EC50) required 1780 nM.

Take `CCCC[C@@H]1NC(=O)[C@H](Cc2cccnc2)NC(=O)[C@H](C)N(C)C(=O)[C@H](Cc2cccc(C)c2)NC(=O)C23CC(CNC(=O)[C@H](Cc4cccnc4)N(C)C(=O)[C@H](CCCC)NC(=O)[C@H](Cc4ccccc4F)NC1=O)(C2)C3` [compound 166, cyclo(Phe3Me-NMeA-3Pal-Nle-Phe2F-Nle-NMe3Pal-amBCP)] (cyclo([3Pal][Nle][Phe(2-F)][Nle][NMe3Pal][X1][Phe(3-Me)][NMeA])): a half-maximal effect (EC50) was put at 22.3 nM.

Consider `CCCC[C@@H]1NC(=O)[C@H](Cc2cccnc2)NC(=O)[C@H](C)N(C)C(=O)[C@H](Cc2ccc(F)cc2)NC(=O)C23CC(CNC(=O)[C@H](Cc4cccnc4)N(C)C(=O)[C@H](CCCC)NC(=O)[C@H](Cc4ccccc4F)NC1=O)(C2)C3` [compound 167, cyclo(Phe4F-NMeA-3Pal-Nle-Phe2F-Nle-NMe3Pal-amBCP)] (cyclo([3Pal][Nle][Phe(2-F)][Nle][NMe3Pal][X1][Phe(4-F)][NMeA])), for which the half-maximal effective concentration (EC50) (usually the concentration needed to bring the measured effect to its halfway point) is 99.9 nM.

For the compound `CCCC[C@@H]1NC(=O)[C@H](Cc2cccnc2)NC(=O)[C@H](C)N(C)C(=O)[C@H](Cc2ccc(O)cc2)NC(=O)C23CC(CNC(=O)[C@H](Cc4cccnc4)N(C)C(=O)[C@H](CCCC)NC(=O)[C@H](Cc4ccccc4F)NC1=O)(C2)C3` [compound 168, cyclo(Y-NMeA-3Pal-Nle-Phe2F-Nle-NMe3Pal-amBCP)] (cyclo(Y[NMeA][3Pal][Nle][Phe(2-F)][Nle][NMe3Pal][X1])), the response was half-maximal at 440 nM (EC50).

For the compound `CCCC[C@@H]1NC(=O)[C@H](Cc2cccnc2)NC(=O)[C@H](C)N(C)C(=O)[C@H](Cc2ccc(OC)cc2)NC(=O)C23CC(CNC(=O)[C@H](Cc4cccnc4)N(C)C(=O)[C@H](CCCC)NC(=O)[C@H](Cc4ccccc4F)NC1=O)(C2)C3` [compound 169, cyclo(TyrOMe-NMeA-3Pal-Nle-Phe2F-Nle-NMe3Pal-amBCP)] (cyclo([3Pal][Nle][Phe(2-F)][Nle][NMe3Pal][X1]Y(Me)[NMeA])), it took 757 nM to reach a half-maximal effect (EC50).

In turn, `CCCC[C@@H]1NC(=O)[C@H](Cc2cccnc2)NC(=O)[C@H](C)N(C)C(=O)[C@H](Cc2ccc(C)cc2)NC(=O)C23CC(CNC(=O)[C@H](Cc4cccnc4)N(C)C(=O)[C@H](CCCC)NC(=O)[C@H](Cc4ccccc4F)NC1=O)(C2)C3` [compound 170, cyclo(Phe4Me-NMeA-3Pal-Nle-Phe2F-Nle-NMe3Pal-amBCP)] (cyclo([3Pal][Nle][Phe(2-F)][Nle][NMe3Pal][X1][Phe(4-Me)][NMeA])) displayed an EC50 of 91.1 nM.

For `CCCC[C@@H]1NC(=O)[C@H](Cc2cncnc2)NC(=O)[C@H](C)N(C)C(=O)[C@H](Cc2ccccc2)OC(=O)C23CC(CNC(=O)[C@H](Cc4ccc(C)cc4)N(C)C(=O)[C@H](CCCC)NC(=O)[C@H](Cc4ccccc4F)NC1=O)(C2)C3` [compound 171, cyclo(FLac-NMeA-PyrimAla-Nle-Phe2F-Nle-NMePhe4Me-amBCP)] (cyclo([NMeA][Ala(pyrimidin-5-yl)][Nle][Phe(2-F)][Nle][NMePhe(4-Me)][X1][PhLac])), the EC50 was found to be 19.1 nM.

Compound `CCCC[C@@H]1NC(=O)[C@H](Cc2cncnc2)NC(=O)[C@H](C)N(C)C(=O)[C@H](Cc2ccccc2)OC(=O)C23CC(CNC(=O)[C@H](Cc4cccc(C)c4)N(C)C(=O)[C@H](CCCC)NC(=O)[C@H](Cc4ccccc4F)NC1=O)(C2)C3` [compound 172, cyclo(FLac-NMeA-PyrimAla-Nle-Phe2F-Nle-NMePhe3Me-amBCP)] (cyclo([NMeA][Ala(pyrimidin-5-yl)][Nle][Phe(2-F)][Nle][NMePhe(3-Me)][X1][PhLac])) yielded an EC50 of 6.03 nM.

The compound `CCCC[C@@H]1NC(=O)[C@H](Cc2cncnc2)NC(=O)[C@H](C)N(C)C(=O)[C@H](Cc2ccccc2)OC(=O)C23CC(CNC(=O)[C@H](Cc4ccc(F)cc4)N(C)C(=O)[C@H](CCCC)NC(=O)[C@H](Cc4ccccc4F)NC1=O)(C2)C3` [compound 173, cyclo(FLac-NMeA-PyrimAla-Nle-Phe2F-Nle-NMePhe4F-amBCP)] (cyclo([NMeA][Ala(pyrimidin-5-yl)][Nle][Phe(2-F)][Nle][NMePhe(4-F)][X1][PhLac])) gave an EC50 of 12.5 nM.

For the compound `CCCC[C@@H]1NC(=O)[C@H](Cc2cncnc2)NC(=O)[C@H](C)N(C)C(=O)[C@H](Cc2ccccc2)OC(=O)C23CC(CNC(=O)[C@H](Cc4cccc(F)c4)N(C)C(=O)[C@H](CCCC)NC(=O)[C@H](Cc4ccccc4F)NC1=O)(C2)C3` [compound 174, cyclo(FLac-NMeA-PyrimAla-Nle-Phe2F-Nle-NMePhe3F-amBCP)] (cyclo([NMeA][Ala(pyrimidin-5-yl)][Nle][Phe(2-F)][Nle][NMePhe(3-F)][X1][PhLac])), the EC50 came to 12.2 nM.

Regarding `CCCC[C@@H]1NC(=O)[C@H](Cc2cncnc2)NC(=O)[C@H](C)N(C)C(=O)[C@H](Cc2ccccc2)OC(=O)C23CC(CNC(=O)[C@H](Cc4ccc(OC)cc4)N(C)C(=O)[C@H](CCCC)NC(=O)[C@H](Cc4ccccc4F)NC1=O)(C2)C3` [compound 175, cyclo(FLac-NMeA-PyrimAla-Nle-Phe2F-Nle-NMeYOMe-amBCP)] (cyclo([NMeA][Ala(pyrimidin-5-yl)][Nle][Phe(2-F)][Nle][NMeY](Me)[X1][PhLac])), the EC50 was 11 nM.

The compound `CCC[C@@H]1NC(=O)[C@H](Cc2ccc(O)cc2)NC(=O)[C@H](CC(C)C)NC(=O)[C@H](Cc2ccc(O)cc2)NC(=O)[C@H](CCCNC(=N)N)N(C)C(=O)[C@H](Cc2ccccc2)NC(=O)CSC[C@H](C(N)=O)NC(=O)[C@H](Cc2ccccc2)N(C)C1=O` [compound 176, cyclo(F-NMeR-Y-L-Y-Nva-NMeF-dCl-ClAc)] ({CH2CO}-F[NMeR]YLY[Nva][NMeF][dC]-NH2; thioether N-8) showed an EC50 of 2420 nM.

Consider `CCCC[C@@H]1NC(=O)[C@H](Cc2ccc(OC)cc2)NC(=O)[C@H](CC2CCC2)NC(=O)[C@@H](Cc2cccnc2)NC(=O)[C@H](CCCNC(=N)N)NC(=O)[C@H](Cc2ccccc2)NC(=O)CSC[C@H](C)NC(=O)[C@H](Cc2ccccc2)N(C)C1=O` [compound 180, cyclo(F-R-d3Pal-cBuA-TyrOMe-Nle-NMeF-Smcysteamine-ClAc)] (cyclo([Cba]Y(Me)[Nle][NMeF][X53]FR[d3Pal])), for which the response was half-maximal at 37.8 nM (EC50).

Regarding `CCCC[C@@H]1NC(=O)[C@H](Cc2ccccc2F)NC(=O)[C@H](CC2CCC2)NC(=O)[C@@H](Cc2cccnc2)NC(=O)CN(CCCn2ccnc2)C(=O)[C@H](Cc2ccccc2)NC(=O)C23CC(CNC(=O)[C@H](Cc4cccnc4)N(C)C1=O)(C2)C3` [compound 181, cyclo(F-IPG-d3Pal-cBuA-Phe2F-Nle-NMe3Pal-amBCP)] (cyclo(F[N(3-imidazol-1-ylpropyl)Gly][d3Pal][Cba][Phe(2-F)][Nle][NMe3Pal][X1])), the response was half-maximal at 1230 nM (EC50).

The compound `CCCC[C@@H]1NC(=O)[C@H](Cc2cccnc2)NC(=O)[C@H](CCCNC(=N)N)NC(=O)[C@H](Cc2ccccc2)NC(=O)CSC[C@@](C)(C(=O)N(C)C)NC(=O)[C@H](Cc2cccnc2)N(C)C(=O)[C@H](CCCC)NC(=O)[C@H](Cc2ccccc2F)NC1=O` [compound 184, cyclo(F-R-3Pal-Nle-Phe2F-Nle-NMe3Pal-aMeC7-ClAc)] ({CH2CO}-FR[3Pal][Nle][Phe(2-F)][Nle][NMe3Pal][αMeC]-NMe2; thioether N-8) yielded an EC50 of 728 nM.

In turn, `CCCC[C@@H]1NC(=O)[C@H](CCCCCN)NC(=O)[C@H](CCCNC(=N)N)NC(=O)[C@H](Cc2ccccc2)NC(=O)CSCCNC(=O)[C@H](Cc2ccccc2)N(C)C(=O)[C@H](CCc2ccc(O)cc2)NC(=O)[C@H](Cc2ccc(-c3ccccc3)cc2)NC1=O` [compound 194, cyclo(F-R-hK-Nle-Bip-hY-NMeF-Cysteamine-ClAc)] (cyclo([Bip][hTyr][NMeF][NHCH2CH2SCH2CO]FR[hLys][Nle])) gave an EC50 of 4490 nM.

`CCCC[C@@H]1NC(=O)[C@H](CCCCN)NC(=O)[C@H](CCCNC(=N)N)NC(=O)[C@H](Cc2cccc3ccccc23)NC(=O)CSCCNC(=O)[C@H](Cc2ccccc2)N(C)C(=O)[C@H](CCCC)NC(=O)[C@H](Cc2cccc(CC(=O)O)c2)NC1=O` [compound 196, cyclo(INal-R-K-Nle-Phe3AcOH-Nle-NMeF-Cysteamine-ClAc)] (cyclo([1Nal]RK[Nle][X49][Nle][NMeF][NHCH2CH2SCH2CO])) showed an EC50 of 2650 nM.

In turn, `CCCC[C@@H]1NC(=O)[C@H](CCCCN)NC(=O)[C@H](CCCNC(=N)N)NC(=O)[C@H](Cc2cccc3ccccc23)NC(=O)CSCCNC(=O)[C@H](Cc2ccccc2)N(C)C(=O)[C@H](CCCC)NC(=O)[C@H](Cc2cccc(C(=O)O)c2)NC1=O` [compound 197, cyclo(1Nal-R-K-Nle-Phe3COOH-Nle-NMeF-Cysteamine)-ClAc] (cyclo([1Nal]RK[Nle][Phe(3-COOH)][Nle][NMeF][NHCH2CH2SCH2CO])) came in with an EC50 of 2120 nM.

As for `CCCC[C@@H]1NC(=O)[C@H](Cc2ccncc2)NC(=O)[C@H](CCCNC(=N)N)NC(=O)[C@H](Cc2cccc3ccccc23)NC(=O)CSC[C@H](C(=O)O)NC(=O)[C@H](Cc2ccccc2)N(C)C(=O)[C@H](CCCC)NC(=O)[C@H](Cc2ccc(O)cc2)NC1=O` [compound 198, cyclo(INal-R-4Pal-Nle-Y-Nle-NMeF-dC-ClAc)] ({CH2CO}-[1Nal]R[4Pal][Nle]Y[Nle][NMeF][dC]-OH; thioether N-8), the concentration giving a half-maximal response (EC50) came to 299 nM.
